Entries after “also recorded” stand apart in the source; their conditions may differ.
Tests used:
[1] = tested on: translation in rabbit reticulocyte lysate; test: In vitro translation in rabbit reticulocyte lysate (RRL); assay type: biochemical; details: for rescue of translation inhibition by added amino acids: excess amino acids (1-2 mM)
Description: FIG. 23. HF and FF inhibit prolyl tRNA synthetase activity in vitro. […] Rabbit reticulocyte lysate (RRL) was incubated with luciferase mRNA and translation quantitated in a luminescence assay. A high concentration of mixed or individual amino acids (1 mM of each) was added to rescue translational inhibition. AA Mix 1: Asn, Arg, Val, Glu, Gly; AA Mix2: Lys, Ile, Tyr, Asp, Trp; Mix 3: His, Met, Leu, Ala, Thr; Mix 4: Ser, Phe, Pro, Gln. […] Note log scale of y axis.
Inhibitors (FIG. 22) and proline were assayed as described in FIG. 23A. Note log scale at Y axis. Error bars reflect standard deviation of triplicate determinations.
Short myc-tagged polypeptides of identical sequence (see Example 9, “Materials and Methods”) with the exception that NoPro lacks proline, while ProPro contains a proline dipeptide, were translated in RRL in the presence of indicated inhibitors. Translation was examined by anti-myc Western blot.
Note log scale of Y axis.
Translation in vitro was performed using rabbit reticulocyte lysates and luciferase mRNA as template. Translation was measured as arbitrary units of luciferase activity using a luminometer based luminescence assay. Log scale presentation of background-subtracted data is shown.

mTOR pathway = mTOR pathway signaling in fibroblasts; assay type: cell-based, mouse; details: 100 nM HF
Description: FIG. 25. […] MEFs growing in DME/10% FCS were treated with 100 nM HF or 0.5 μM Rapamycin and analyzed by Western blot for phosphorylation of component of the mTor signaling pathway. Lane 1: 100 nM MAZ1310 1 hr; Lane 2: 100 nM HF 8 hr; Lane 3: 100 nM HF 4 hr; Lane 4: 100 nM HF 2 hr; Lane 5: 100 nM HF 1 hr; Lane 6: 0.5 μM Rapamycin 1 hr.

[2] = assay type: in vitro ADME; details: mouse, 2 h, 20 nM
Description: MEFs were incubated with the indicated concentration of HF in the presence or absence of 2 mM proline for 2 hours and then lysed. Lysates were then tested for HF levels in comparison to a standard curve using known concentrations of HF with an anti-HF antibody based ELISA assay (see Example 9, “Materials and Methods”). Error bars reflect standard deviation of triplicate determinations. Similar results were obtained in three separate experiments.
Polyclonal anti-HF antibody was raised by immunizing rabbits with KLH coupled to an HF derivative (MAZ1356) containing a linker attached to the quinazolinone and terminated by a primary amino group. Crude antibody was affinity purified using MAZ1356 linked to NHS-agarose. For the ELISA assay, MAZ1356 was coupled to 96-well Reacti-bind Plates (Pierce). After binding, plates were blocked with 10% goat serum in PBS/0.2% Tween-20 (PBST). […] Captured antibody was quantitated using TMB based colorimetric detection (Pierce), and a standard curve for HF concentration fitted from the colorimetric data. […] To determine HF concentration in cells, 8 μl of cleared lysate (or control buffer) was incubated with anti-HF antibody in MAZ1356 bound wells, and captured antibody detected and quantitated as described above. HF concentration was then determined by fitting colorimetry results with cell samples to a standard curve of HF concentration. […]

[3] = tested on: murine CD4+ CD25− T cells, CD8+ T cells, B cells; details: high concentrations; PCT/US08/09774; cited from earlier work
dermal ECM deposition = details: Pines et al. 2003; cited from earlier work

With `O=C(CC1NCCCC1O)Cn1cnc2cc(Br)c(Cl)cc2c1=O` (racemic) [HF, halofuginone] the “translation of NoPro polypeptide” value [1] was “had no effect on the translation of NoPro”, the “translation of ProPro polypeptide” value [1] was “prevented translation of ProPro” and the “rescue of translation inhibition by added purified EPRS” value ([1]; 80 ng or 0.5 μg EPRS) was “rescued HF/FF-inhibition of protein translation”. For the same molecule, the “translation of luciferase mRNA” value ([1]; 400 nM halofuginone) was “inhibition of translation”, the “eIF2-alpha phosphorylation in RRL” value ([1]; data not shown) was “no increase” and the “rescue of translation inhibition by added amino acids” value [1] was “only proline could restore translation”. The “rescue of translation inhibition by added amino acids” value ([1]; listed as halofuginone) was “rescues inhibition of translation by halofuginone”, the “translation of luciferase RNA in RRL” value ([1]; standard amino acid mix) was “inhibited the translation of luciferase RNA” and the “signaling downstream of mTOR” value (mTOR pathway) was “does not directly inhibit downstream targets of the mTOR pathway; also recorded: did not inhibit signaling downstream of mTOR; also recorded: without concomitant inhibition of mTOR signaling”. For the same molecule, the “absolute HF concentration inside cells” value [2] was about 800 nM, the “concentrations generally inhibiting CD4+ T cell, CD8+ T cell, and B220+ B cell activation” value [3] was 20 to 40 nM and the “dermal ECM deposition” value (dermal ECM deposition) was “potently reduces dermal extracellular matrix (ECM) deposition; also recorded: reduces excess dermal ECM deposition”.

From US20120058133A1, “INHIBITION OF TRNA SYNTHETASES AND THERAPEUTIC APPLICATIONS THEREOF” (President and Fellows of Harvard College, priority 2009, published 2012)
